Assays:
human factor Xa (FXa) = biological target: T1, human factor Xa (FXa) (Homo sapiens, UniProt P00742); assay: Determination of the factor Xa inhibition (chromogenic substrate); assay type: biochemical; conditions: human FXa 0.5 nmol/l, Pefachrome FXa 150 μmol/l, 25° C., pH 8.3
T1 construct: factor Xa, which is formed from the proenzyme factor X
Protocol: The enzymatic inhibition of human factor Xa (FXa) is measured using the conversion of a chromogenic substrate specific for FXa. Factor Xa cleaves p-nitroaniline from the chromogenic substrate. The determinations are carried out in microtitre plates as follows:
The test substances, in various concentrations, are dissolved in DMSO and incubated for 10 minutes at 25° C. with human FXa (0.5 nmol/l dissolved in 50 mmol/l of Tris buffer [C,C,C-tris(hydroxymethyl)aminomethane], 150 mmol/l of NaCl, 0.1% BSA [bovine serum albumin], pH=8.3). Pure DMSO is used as control. The chromogenic substrate (150 μmol/l Pefachrome® FXa from Pentapharm) is then added. After an incubation time of 20 minutes at 25° C., the extinction at 405 nm is determined.

plasmin = biological target: T2, plasmin (Homo sapiens, UniProt P00747); assay: Determination of the selectivity: plasmin inhibition (chromogenic substrate); assay type: biochemical; conditions: plasmin 3.2 nmol/l, Chromozym Plasmin, 37° C., pH 8.0
T2 construct: To determine the enzymatic activity of trypsin (500 mU/ml) and plasmin (3.2 nmol/l)
T2 sequence (P00747 581-810 limits assumed): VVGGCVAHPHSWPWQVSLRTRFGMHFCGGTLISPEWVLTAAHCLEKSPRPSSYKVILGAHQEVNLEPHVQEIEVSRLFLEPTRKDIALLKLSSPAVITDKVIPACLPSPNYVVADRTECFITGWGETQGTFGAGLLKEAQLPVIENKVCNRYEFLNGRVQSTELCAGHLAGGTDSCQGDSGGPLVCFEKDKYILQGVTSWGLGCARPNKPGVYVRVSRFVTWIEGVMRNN
T2 sequence (P00747 97-580 partner limits assumed): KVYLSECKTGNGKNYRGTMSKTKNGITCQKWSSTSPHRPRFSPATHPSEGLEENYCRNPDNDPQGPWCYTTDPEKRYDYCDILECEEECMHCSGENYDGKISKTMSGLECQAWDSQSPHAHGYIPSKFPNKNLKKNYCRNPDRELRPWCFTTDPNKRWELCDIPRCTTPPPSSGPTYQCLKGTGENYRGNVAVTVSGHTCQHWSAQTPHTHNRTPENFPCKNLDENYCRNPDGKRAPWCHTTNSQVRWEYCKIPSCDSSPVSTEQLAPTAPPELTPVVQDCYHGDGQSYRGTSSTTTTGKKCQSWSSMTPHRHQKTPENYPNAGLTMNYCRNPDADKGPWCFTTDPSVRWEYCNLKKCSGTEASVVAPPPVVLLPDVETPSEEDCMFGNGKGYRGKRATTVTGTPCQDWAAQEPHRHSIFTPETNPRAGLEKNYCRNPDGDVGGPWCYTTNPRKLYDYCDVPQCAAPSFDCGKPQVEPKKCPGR
Protocol: (§1) To assess selective FXa inhibition, the test substances are examined for their inhibition of other human serine proteases such as trypsin and plasmin. To determine the enzymatic activity of trypsin (500 mU/ml) and plasmin (3.2 nmol/l), these enzymes are dissolved in Tris buffer (100 mmol/l, 20 mmol/l CaCl2, pH=8.0) and incubated with test substance or solvent for 10 minutes. The enzymatic reaction is then started by adding the corresponding specific chromogenic substrates (Chromozym Trypsin® and Chromozym Plasmin®; from Roche Diagnostics) and the extinction at 405 nm is determined after 20 minutes. All determinations are carried out at 37° C.

trypsin = assay: Determination of the selectivity: trypsin inhibition (chromogenic substrate); assay type: biochemical, human; conditions: trypsin 500 mU/ml, Chromozym Trypsin, 37° C., pH 8.0
Protocol: as §1

T1 sequence (P00742 235-488 limits assumed): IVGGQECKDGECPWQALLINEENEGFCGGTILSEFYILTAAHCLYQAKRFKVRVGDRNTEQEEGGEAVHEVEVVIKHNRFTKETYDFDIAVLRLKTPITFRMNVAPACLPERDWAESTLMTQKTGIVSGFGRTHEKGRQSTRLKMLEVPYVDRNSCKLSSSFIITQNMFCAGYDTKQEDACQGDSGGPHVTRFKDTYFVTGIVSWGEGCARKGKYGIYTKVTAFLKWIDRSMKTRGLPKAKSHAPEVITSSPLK
T1 sequence (P00742 41-179 partner limits assumed): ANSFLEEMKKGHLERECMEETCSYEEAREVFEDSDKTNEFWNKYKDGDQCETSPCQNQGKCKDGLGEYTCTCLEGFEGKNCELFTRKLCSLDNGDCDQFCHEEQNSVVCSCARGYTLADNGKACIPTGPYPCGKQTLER

N=C1O[C@@H](CNC(=O)c2ccc(Cl)s2)CN1c1ccc(N2CCOCC2=O)cc1 [Example 1, 5-Chloro-N-({(5S)-2-imino-3-[4-(3-oxomorpholin-4-yl)phenyl]-1,3-oxazolidin-5-yl}methyl)-thiophene-2-carboxamide]
IC50 (human factor Xa (FXa)): 0.0054 µM | IC50 (plasmin): > 10 µM | IC50 (trypsin): > 10 µM

Source: US20100048548A1, “IMINO-OXAZOLIDINES AND USE THEREOF” (Bayer HealthCare AG, priority 2005, published 2010)
